Legend:
HIV-1IIIB = assay: Inhibition of HIV-1IIIB infection in MT-4 cells (XTT staining); assay type: cell-based; details: HIV-1IIIB in MT-4 cells; for EC50: 6 days incubation, XTT, read-out: EC50 (50% inhibition of virus replication)
Description: (§1) The compounds were evaluated for inhibition of HIV-1IIIB infection and cellular toxicity in MT-4 cells.
(§2) The MT-4 cells and […] used in the HIV-1 inhibition assays were obtained from the AIDS Research and Reference Program (Rockville, MD) and propagated as recommended by the supplier.
(§3) Fifty microliters (50 μL) of MT-4 cells at a density of 1.0×10^4 cells/well in 10% complete RPMI-1640 (10% FBS supplemented with 1% L-glutamine and 1% Penicillin/Streptomycin) media were plated in a 96-well flat bottom plate. One-hundred microliters (100 μL) of each compound at 12 concentrations were added in triplicate followed by 50 μL of HIV-1IIIB at a pre-determined titer. The cultures were incubated for 6 days at 37° C./5% CO2. Following the incubation, the cells were stained with XTT for evaluation of compound efficacy and cellular toxicity, as described below.
(§4) Efficacy and toxicity values for the test materials were derived by measuring the reduction of the tetrazolium dye XTT (2,3-bis(2-methoxy-4-nitro-5-sulfophenyl)-5-[(phenylamino)carbonyl]-2H-tetrazolium hydroxide). XTT in metabolically active cells is metabolized by the mitochondrial enzyme NADPH oxidase to a soluble formazan product. XTT solution was prepared daily as a stock of 1 mg/mL in RPMI-1640 without additives. Phenazine methosulfate (PMS) solution was prepared at 0.15 mg/mL in DPBS and stored in the dark at −20° C. XTT/PMS stock was prepared immediately before use by adding 40 μL of PMS per mL of XTT solution. Fifty μL (50 μL) of XTT/PMS was added to each well of the plate and the plate incubated for 4 hours at 37° C. The 4-hour incubation has been empirically determined to be within the linear response range for XTT dye reduction with the indicated numbers of cells for each assay. The plates were sealed and inverted several times to mix the soluble formazan product and the plate was read at 450 nm (650 nm reference wavelength) with a Molecular Devices SpectraMax Plus 384 96 well plate format spectrophotometer.
(§5) Microsoft Excel 2010 in combination with XLfit4 was used to analyze and graph the data. EC50 (50% inhibition of virus replication), TC50 (50% reduction in cell viability) and a therapeutic index (TC50/EC50) are provided. Raw data for both antiviral activity and toxicity with a graphic representation of the data are provided in a printout summarizing the compound activity.

MT-4 cells = assay: Cellular toxicity in MT-4 cells (XTT staining); assay type: cell-based; details: 6 days incubation, read-out: TC50 (50% reduction in cell viability)
Description: as §1, §2, §3, §4, §5

## Cc1nsc2nc([C@H](Cc3cc(F)cc(F)c3)NC(=O)Cn3nc(C(F)(F)F)c4c3C(F)(F)[C@@H]3C[C@H]43)n(-c3ccc(Cl)c4c(NS(C)(=O)=O)nn(C)c34)c(=O)c12 (atropisomer, axis not shown) [Compound 45]
HIV-1IIIB
  Therapeutic Index (TC50/EC50): >212.8
  EC50: 0.47 nM
MT-4 cells
  CC50: > 100 nM

## Cn1nc(NS(C)(=O)=O)c2c(Cl)ccc(-n3c([C@H](Cc4cc(F)cc(F)c4)NC(=O)Cn4nc(C(F)(F)F)c5c4C(F)(F)[C@@H]4C[C@H]54)nc4ncsc4c3=O)c21 (atropisomer, axis not shown) [Compound 36]
HIV-1IIIB
  Therapeutic Index (TC50/EC50): >625.0
  EC50: 0.16 nM
MT-4 cells
  CC50: > 100 nM

## Cn1nc(NS(C)(=O)=O)c2c(Cl)ccc(-n3c([C@H](Cc4cc(F)cc(F)c4)NC(=O)Cn4nc(C(F)(F)F)c5c4C(F)(F)[C@@H]4C[C@H]54)nc4onc(-c5ccccc5)c4c3=O)c21 (atropisomer, axis not shown) [Compound 38]
HIV-1IIIB
  EC50: > 100 nM
MT-4 cells
  CC50: > 100 nM

From patent US20240327428A1, “Inhibitors of human immunodeficiency virus replication, method of making and method of using thereof” (ASCLETIS BIOSCIENCE CO., LTD., priority 2023, published 2024)
